{
  "source": "patent US20220002283A1",
  "about": "(Mylan Laboratories Limited, priority 2019, published 2022)",
  "key": {"[1]": {"assay": "Solid state stability, PXRD", "assay_type": "physicochemical", "parameters": "key: X: crystalline; S: stable", "protocol": "Thus, the X-ray diffraction patterns of the co-crystals of provided herein were measured on a PANalytical X'PertPRO Powder X-ray diffractometer equipped with goniometer of θ/θ configuration and X'celerator detector. The Cu-anode X-ray tube was operated at 45 kV and 40 mA. The experiments were conducted over the 2θ range of 2.0°-50.0°, 0.030° step size and 189.865 time per step (seconds) and all the co-crystals were characterized with above mentioned method.\n(§1) The samples were analyzed by PXRD, assay and related substances by HPLC."}, "[2]": {"assay": "Solid state stability, HPLC meloxicam co-crystal assay", "assay_type": "physicochemical", "protocol": "• Instrumentation: Waters HPLC system having 2695 model pump having UV/PDA detector with Empower chromatography software or its equivalent. • Column: (A) Unison UK C18 column; (B) YMC Trait C18 EXRS Column, 250×4.6 mm, 5.0 micron; (C) Water Atlantis T3, 250×4.6 mm, 5 micron. • Mobile Phase: (A) methanol-acetonitrile-dipotassium phosphate buffer; or (B) acetonitrile-Sodium sulfate buffer solution • Detection wavelength: 210 nm and 360 nm\nas §1"}, "[3]": {"assay": "Solid state stability, impurities by HPLC", "assay_type": "physicochemical", "protocol": "A Zorbax Eclipse XDB C18 column was used with the mobile phase of methanol-acetonitrile-10 mM phosphate buffer solution at the detection wavelength of 350 nm and 260 nm. • Instrumentation: Waters HPLC system having 2695 model pump having UV/PDA detector with Empower chromatography software or its equivalent. • Chemicals: Dipotassium hydrogen phosphate, orthophosphoric acid, acetonitrile, water, sodium hydroxide, methanol. • Column: Zorbax Eclipse XDB C18 column, 250×4.6 mm, 5 μm. • Elution: Gradient. • Flow rate: 0.8 mL/min.\nas §1"}, "[4]": {"assay": "Solid state stability, physical and chemical (PXRD and HPLC), overall finding", "conditions": "40° C./75% RH and 25° C./60% RH, three months", "protocol": "as §1"}, "[5]": {"conditions": "cited from earlier work"}, "[6]": {"conditions": "25° C./60% RH, 1 mo., samples as per Example 7 or 17"}, "[7]": {"conditions": "25° C./60% RH, 2 mo., samples as per Example 7 or 17"}, "[8]": {"conditions": "25° C./60% RH, 3 mo., samples as per Example 7 or 17"}, "[9]": {"conditions": "25° C./60% RH, Initial, samples as per Example 7 or 17"}, "[10]": {"conditions": "40° C./75% RH, 1 mo., samples as per Example 7, 17 or 14"}, "[11]": {"conditions": "40° C./75% RH, 2 mo., samples as per Example 7, 17 or 14"}, "[12]": {"conditions": "40° C./75% RH, 3 mo., samples as per Example 7 or 17"}, "[13]": {"conditions": "40° C./75% RH, Initial, samples as per Example 7, 17 or 14"}},
  "data": [
    {"smiles": "Cc1cnc(NC(=O)C2=C(O)c3ccccc3S(=O)(=O)N2C)s1.Cc1cnc(NC(=O)C2=C(O)c3ccccc3S(=O)(=O)N2C)s1.O=C(O)CCC(=O)O", "note": "[Meloxicam:Succinic acid (2:1)]", "values": [
      {"measurement": "PXRD", "setting": "[1]; [6]", "value": "S"},
      {"measurement": "PXRD", "setting": "[1]; [7]", "value": "S"},
      {"measurement": "PXRD", "setting": "[1]; [8]", "value": "S"},
      {"measurement": "PXRD", "setting": "[1]; [9]", "value": "X"},
      {"measurement": "PXRD", "setting": "[1]; [10]", "value": "S"},
      {"measurement": "PXRD", "setting": "[1]; [11]", "value": "S"},
      {"measurement": "PXRD", "setting": "[1]; [12]", "value": "S"},
      {"measurement": "PXRD", "setting": "[1]; [13]", "value": "X"},
      {"measurement": "Assay (% by HPLC) M % (Meloxicam Assay %)", "setting": "[2]; [6]", "value": 85.2, "unit": "%"},
      {"measurement": "Assay (% by HPLC) M % (Meloxicam Assay %)", "setting": "[2]; [7]", "value": 85.1, "unit": "%"},
      {"measurement": "Assay (% by HPLC) M % (Meloxicam Assay %)", "setting": "[2]; [8]", "value": 84.8, "unit": "%"},
      {"measurement": "Assay (% by HPLC) M % (Meloxicam Assay %)", "setting": "[2]; [9]", "value": 85.1, "unit": "%"},
      {"measurement": "Assay (% by HPLC) M % (Meloxicam Assay %)", "setting": "[2]; [10]", "value": 84.8, "unit": "%"},
      {"measurement": "Assay (% by HPLC) M % (Meloxicam Assay %)", "setting": "[2]; [11]", "value": 83.9, "unit": "%"},
      {"measurement": "Assay (% by HPLC) M % (Meloxicam Assay %)", "setting": "[2]; [12]", "value": 84.9, "unit": "%"},
      {"measurement": "Assay (% by HPLC) M % (Meloxicam Assay %)", "setting": "[2]; [13]", "value": 85.1, "unit": "%"},
      {"measurement": "Impurities (% w/w, by HPLC) Ethyl Meloxicam", "setting": "[3]; [6]", "value": "BDL"},
      {"measurement": "Impurities (% w/w, by HPLC) Methyl Meloxicam", "setting": "[3]; [6]", "value": 0.01, "unit": "% w/w"},
      {"measurement": "Impurities (% w/w, by HPLC) Other* (any other individual impurity)", "setting": "[3]; [6]", "value": 0.03, "unit": "% w/w"},
      {"measurement": "Impurities (% w/w, by HPLC) Total", "setting": "[3]; [6]", "value": 0.14, "unit": "% w/w"},
      {"measurement": "Impurities (% w/w, by HPLC) Ethyl Meloxicam", "setting": "[3]; [7]", "value": "BDL"},
      {"measurement": "Impurities (% w/w, by HPLC) Methyl Meloxicam", "setting": "[3]; [7]", "value": "BDL"},
      {"measurement": "Impurities (% w/w, by HPLC) Other* (any other individual impurity)", "setting": "[3]; [7]", "value": 0.03, "unit": "% w/w"},
      {"measurement": "Impurities (% w/w, by HPLC) Total", "setting": "[3]; [7]", "value": 0.13, "unit": "% w/w"},
      {"measurement": "Impurities (% w/w, by HPLC) Ethyl Meloxicam", "setting": "[3]; [8]", "value": "BDL"},
      {"measurement": "Impurities (% w/w, by HPLC) Methyl Meloxicam", "setting": "[3]; [8]", "value": "BDL"},
      {"measurement": "Impurities (% w/w, by HPLC) Other* (any other individual impurity)", "setting": "[3]; [8]", "value": 0.02, "unit": "% w/w"},
      {"measurement": "Impurities (% w/w, by HPLC) Total", "setting": "[3]; [8]", "value": 0.13, "unit": "% w/w"},
      {"measurement": "Impurities (% w/w, by HPLC) Ethyl Meloxicam", "setting": "[3]; [9]", "value": "BDL"},
      {"measurement": "Impurities (% w/w, by HPLC) Methyl Meloxicam", "setting": "[3]; [9]", "value": 0.01, "unit": "% w/w"},
      {"measurement": "Impurities (% w/w, by HPLC) Other* (any other individual impurity)", "setting": "[3]; [9]", "value": 0.03, "unit": "% w/w"},
      {"measurement": "Impurities (% w/w, by HPLC) Total", "setting": "[3]; [9]", "value": 0.06, "unit": "% w/w"},
      {"measurement": "Impurities (% w/w, by HPLC) Ethyl Meloxicam", "setting": "[3]; [10]", "value": "BDL"},
      {"measurement": "Impurities (% w/w, by HPLC) Methyl Meloxicam", "setting": "[3]; [10]", "value": 0.01, "unit": "% w/w"},
      {"measurement": "Impurities (% w/w, by HPLC) Other* (any other individual impurity)", "setting": "[3]; [10]", "value": 0.03, "unit": "% w/w"},
      {"measurement": "Impurities (% w/w, by HPLC) Total", "setting": "[3]; [10]", "value": 0.14, "unit": "% w/w"},
      {"measurement": "Impurities (% w/w, by HPLC) Ethyl Meloxicam", "setting": "[3]; [11]", "value": "BDL"},
      {"measurement": "Impurities (% w/w, by HPLC) Methyl Meloxicam", "setting": "[3]; [11]", "value": "BDL"},
      {"measurement": "Impurities (% w/w, by HPLC) Other* (any other individual impurity)", "setting": "[3]; [11]", "value": 0.03, "unit": "% w/w"},
      {"measurement": "Impurities (% w/w, by HPLC) Total", "setting": "[3]; [11]", "value": 0.12, "unit": "% w/w"},
      {"measurement": "Impurities (% w/w, by HPLC) Ethyl Meloxicam", "setting": "[3]; [12]", "value": "BDL"},
      {"measurement": "Impurities (% w/w, by HPLC) Methyl Meloxicam", "setting": "[3]; [12]", "value": "BDL"},
      {"measurement": "Impurities (% w/w, by HPLC) Other* (any other individual impurity)", "setting": "[3]; [12]", "value": 0.01, "unit": "% w/w"},
      {"measurement": "Impurities (% w/w, by HPLC) Total", "setting": "[3]; [12]", "value": 0.08, "unit": "% w/w"},
      {"measurement": "Impurities (% w/w, by HPLC) Ethyl Meloxicam", "setting": "[3]; [13]", "value": "BDL"},
      {"measurement": "Impurities (% w/w, by HPLC) Methyl Meloxicam", "setting": "[3]; [13]", "value": 0.01, "unit": "% w/w"},
      {"measurement": "Impurities (% w/w, by HPLC) Other* (any other individual impurity)", "setting": "[3]; [13]", "value": 0.03, "unit": "% w/w"},
      {"measurement": "Impurities (% w/w, by HPLC) Total", "setting": "[3]; [13]", "value": 0.06, "unit": "% w/w"},
      {"measurement": "Meloxicam Related Compounds A, B, C, and D by HPLC", "setting": "[3]; any timepoint from initiation up to 3 months, 40° C./75% RH and 25° C./60% RH", "value": "^#Meloxicam Related Compounds A, B, C, and D (see Table 4a) were not detectable at any timepoint from initiation up to 3 months."},
      {"measurement": "physical and chemical stability", "setting": "[4]", "value": "physically and chemically stable"}
    ]},
    {"smiles": "O=C(O)c1ccc(O)cc1", "note": "[4-Hydroxybenzoic acid]", "values": [
      {"measurement": "pKa (co-former)", "setting": "[5]", "value": 4.58},
      {"measurement": "pKa", "setting": "physchem", "value": -0.38}
    ]},
    {"smiles": "O=C(O)c1ccc2ccccc2c1O", "note": "[1-Hydroxy-2-naphthoic acid]", "values": [
      {"measurement": "pKa", "setting": "physchem", "value": 1.5}
    ]},
    {"smiles": "O=C(O)CCC(=O)O", "note": "[Succinic acid]", "values": [
      {"measurement": "pKa", "setting": "physchem", "value": -0.01}
    ]},
    {"smiles": "O=C(O)CCc1ccccc1", "note": "[Hydrocinnamic acid]", "values": [
      {"measurement": "pKa (co-former)", "setting": "[5]", "value": 4.66},
      {"measurement": "pKa", "setting": "physchem", "value": -0.46}
    ]}
  ]
}
